According to patent US7767659B2, “Synthesis of naturally occurring ecteinascidins and related compounds” (Pharma Mar, S.A., priority 2002, dated 2010):
Where two headings read alike, the source gives them in different places.

Key:
A-549 = test: cells; settings: Homo sapiens, A549, 48 h
Description: (§1) This form of the assay employs 96 well cell culture microplates of 9 mm diameter (Faircloth, 1988; Mosmann, 1983). Most of the cell lines are obtained from American Type Culture Collection (ATCC) derived from different human cancer types.
(§2) Cells are maintained in RPMI 1640 10% FBS, supplemented with 0.1 g/l penicillin and 0.1 g/l streptomycin sulfate and then incubated at 37° C., 5% CO2 and 98% humidity. For the experiments, cells were harvested from subconfluent cultures using trypsin and resuspended in fresh medium before plating.
(§3) Cells are seeded in 96 well microtiter plates, at 5×10^3 cells per well in aliquots of 195 μl medium, and they are allowed to attach to the plate surface by growing in drug free medium for 18 hours. Afterward, samples are added in aliquots of 5 μl in a ranging from 10 to 10^−8 μg/ml, dissolved in DMSO/EtOH/PBS (0.5:0.5:99). After 48 hours exposure, the antitumor effect are measured by the SRB methodology: cells are fixed by adding 50 μl of cold 50% (wt/vol) trichloroacetic acid (TCA) and incubating for 60 minutes at 4° C. Plates are washed with deionized water and dried. One hundred μl of SRB solution (0.4% wt/vol in 1% acetic acid) is added to each microtiter well and incubated for 10 minutes at room temperature. Unbound SRB is removed by washing with 1% acetic acid. Plates are air dried and bound stain is solubilzed with Tris buffer. Optical densities are read on a automated spectrophotometric plate reader at a single wavelength of 490 nm.
(§4) The values for mean +/− SD of data from triplicate wells are calculated. Some parameters for cellular responses can be calculated: GI=growth inhibition, TGI=total growth inhibition (cytostatic effect) and LC=cell killing (cytotoxic effect).

HT-29 = test: cells; settings: Homo sapiens, HT-29, 48 h
Description: as §1, §2, §3, §4

LoVo = test: cells; settings: Homo sapiens, LoVo, 48 h; for GI50: read-out: LOVO GI50; for CC50: read-out: LOVO LC50; for IC (TGI): read-out: LOVO TGI
Description: as §1, §2, §3, §4

DU-145 = test: Inhibition of cells growth by colorimetric assay (SRB); settings: Homo sapiens, DU-145, 48 h
Description: as §1, §2, §3, §4

HeLa-APL = test: as above; settings: Homo sapiens, 48 h; for GI50: read-out: HELA-APL GI50; for CC50: read-out: HELA-APL LC50; for IC (TGI): read-out: HELA-APL TGI
Description: as §1, §2, §3, §4

HeLa = test: as above; settings: Homo sapiens, HeLa, 48 h; for GI50: read-out: HELA GI50; for CC50: read-out: HELA LC50; for IC (TGI): read-out: HELA TGI
Description: as §1, §2, §3, §4

IGROV-1 = test: as above; settings: Homo sapiens, IGROV-1, 48 h; for GI50: read-out: IGROV GI50; for CC50: read-out: IGROV LC50; for IC (TGI): read-out: IGROV TGI
Description: as §1, §2, §3, §4

K-562 = test: as above; settings: Homo sapiens, K562, 48 h; for GI50: read-out: K562 GI50; for CC50: read-out: K562 LC50; for IC (TGI): read-out: K562 TGI
Description: as §1, §2, §3, §4

LNCaP = test: as above; settings: Homo sapiens, LNCaP, 48 h
Description: as §1, §2, §3, §4

LoVo-Dox = test: as above; settings: Homo sapiens, 48 h; for GI50: read-out: LOVO-DOX GI50; for CC50: read-out: LOVO-DOX LC50; for IC (TGI): read-out: LOVO-DOX TGI
Description: as §1, §2, §3, §4

PANC-1 = test: as above; settings: Homo sapiens, PANC-1, 48 h; for GI50: read-out: PANC-1 GI50; for CC50: read-out: PANC-1 LC50; for IC (TGI): read-out: PANC-1 TGI
Description: as §1, §2, §3, §4

SK-BR-3 = test: as above; settings: Homo sapiens, SK-BR-3, 48 h
Description: as §1, §2, §3, §4

SK-MEL-28 = test: as above; settings: Homo sapiens, SK-MEL-28, 48 h
Description: as §1, §2, §3, §4

IGROV-ET = test: as above; settings: Homo sapiens, 48 h
Description: as §1, §2, §3, §4

Row | Compound | GI50 (LoVo) | CC50 (LoVo) | IC (TGI) (LoVo) | GI50 (HeLa-APL) | CC50 (HeLa-APL) | IC (TGI) (HeLa-APL) | GI50 (HeLa) | CC50 (HeLa) | IC (TGI) (HeLa) | GI50 (IGROV-1) | CC50 (IGROV-1) | IC (TGI) (IGROV-1) | GI50 (K-562) | CC50 (K-562) | IC (TGI) (K-562) | GI50 (LoVo-Dox) | CC50 (LoVo-Dox) | IC (TGI) (LoVo-Dox) | GI50 (PANC-1) | CC50 (PANC-1) | other results
1 | CCC(=O)NC1CS[C@@H]2c3c(OC(C)=O)c(C)c4c(c3[C@H](COC1=O)N1C2[C@@H]2N[C@@H](Cc3cc(C)c(OC)c(O)c32)[C@@H]1C#N)OCO4 (stereo partly drawn) [compound 33] | 19.9 nM | 145 nM | 53.6 nM | 5.24 nM | 115 nM | 19.1 nM | 5.02 nM | 96.9 nM | 16.1 nM | 98.5 nM | 1580 nM | 426 nM | 5.49 nM | 2830 nM | 159 nM | 367 nM | 5900 nM | 940 nM | 19.9 nM | 4510 nM | GI50 (A-549; read-out: GI50 A549): 26.2 nM; CC50 (A-549; read-out: LC50 A549): 149 nM; IC (TGI) (A-549; read-out: TGI A549): 62.4 nM; GI50 (HT-29; read-out: GI50 HT29): 17.3 nM; CC50 (HT-29; read-out: LC50 HT29): 9810 nM; IC (TGI) (HT-29; read-out: TGI HT29): 271 nM; GI50 (DU-145; read-out: GI50 DU145): 8.02 nM; CC50 (DU-145; read-out: LC50 DU145): 4410 nM; IC (TGI) (DU-145; read-out: TGI DU145): 15.6 nM; GI50 (LNCaP; read-out: GI50 LNCAP): 2.86 nM; CC50 (LNCaP; read-out: LC50 LNCAP): 11.1 nM; IC (TGI) (LNCaP; read-out: TGI LNCAP): 5.64 nM; IC (TGI) (PANC-1): 122 nM; GI50 (SK-BR-3; read-out: SK-BR3 GI50): 4.83 nM; CC50 (SK-BR-3; read-out: SK-BR3 LC50): 385 nM; IC (TGI) (SK-BR-3; read-out: SK-BR3 TGI): 13.9 nM; GI50 (SK-MEL-28; read-out: GI50 MEL-28): 12.8 nM; CC50 (SK-MEL-28; read-out: LC50 MEL-28): 97.9 nM; IC (TGI) (SK-MEL-28; read-out: TGI MEL-28): 36.7 nM
2 | COc1c(C)cc2c(c1O)[C@H]1N[C@@H](C2)[C@H](C#N)N2C1[C@@H]1SCC(=O)C(=O)OC[C@H]2c2c3c(c(C)c(OC(C)=O)c21)OCO3 (stereo partly drawn) [compound 42] | 37.7 nM | 2930 nM | 72.6 nM | 34.6 nM | 130 nM | 67 nM | 28.1 nM | 139 nM | 62.5 nM | 28.6 nM | 153 nM | 66.3 nM | 17.8 nM | 694 nM | 59.6 nM | 515 nM | 16500 nM | 1440 nM | 39 nM | 5270 nM | GI50 (A-549; read-out: A549 GI50): 57.4 nM; CC50 (A-549; read-out: A549 LC50): 2370 nM; IC (TGI) (A-549; read-out: A549 TGI): 147 nM; GI50 (HT-29; read-out: HT29 GI50): 39.7 nM; CC50 (HT-29; read-out: HT29 LC50): 16500 nM; IC (TGI) (HT-29; read-out: HT29 TGI): 131 nM; GI50 (DU-145; read-out: DU145 GI50): 37.4 nM; CC50 (DU-145; read-out: DU145 LC50): 247 nM; IC (TGI) (DU-145; read-out: DU145 TGI): 82.5 nM; GI50 (IGROV-ET; read-out: IGROV-ET GI50): 280 nM; CC50 (IGROV-ET; read-out: IGROV-ET LC50): 16500 nM; IC (TGI) (IGROV-ET; read-out: IGROV-ET TGI): 1020 nM; GI50 (LNCaP; read-out: LNCAP GI50): 5.96 nM; CC50 (LNCaP; read-out: LNCAP LC50): 63.7 nM; IC (TGI) (LNCaP; read-out: LNCAP TGI): 22.4 nM; IC (TGI) (PANC-1): 11.5 nM; GI50 (SK-MEL-28; read-out: MEL-28 GI50): 30.1 nM; CC50 (SK-MEL-28; read-out: MEL-28 LC50): 107 nM; IC (TGI) (SK-MEL-28; read-out: MEL-28 TGI): 56.8 nM
